ChEMBL document CHEMBL1134877, “Design, synthesis and biological activity of carbohydrate-containing peptidomimetics as new ligands for the human tachykinin NK-2 receptor” (Bioorg Med Chem Lett, 2002)

target: T1, Substance-K receptor (Homo sapiens, UniProt P21452); assay: Displacement of [125I]NKA from human Tachykinin receptor 2 expressed in CHO cells; type: cell-based
T1 sequence (P21452 whole entry): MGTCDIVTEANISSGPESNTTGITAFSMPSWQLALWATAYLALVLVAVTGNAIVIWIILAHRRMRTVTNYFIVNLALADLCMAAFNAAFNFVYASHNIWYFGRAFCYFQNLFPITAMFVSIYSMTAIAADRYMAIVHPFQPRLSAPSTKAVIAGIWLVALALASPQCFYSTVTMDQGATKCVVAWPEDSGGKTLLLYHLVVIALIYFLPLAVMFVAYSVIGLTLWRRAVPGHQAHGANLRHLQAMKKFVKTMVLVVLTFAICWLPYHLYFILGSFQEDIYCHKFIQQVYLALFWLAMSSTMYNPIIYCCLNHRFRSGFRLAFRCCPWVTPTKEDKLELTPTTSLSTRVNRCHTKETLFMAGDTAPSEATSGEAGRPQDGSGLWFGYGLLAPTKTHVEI

Going from `CC1=C(C(=O)Oc2ccccc2)SC2C(O1)OC(COCc1ccccc1)C(OCc1ccccc1)C2OCc1ccccc1` (stereo not given) to `CC1=C(C(=O)Oc2ccccc2)[S+]([O-])C2C(O1)OC(COCc1ccccc1)C(OCc1ccccc1)C2OCc1ccccc1` (stereo not given), the Ki falls from over 10 µM to 0.4 µM.

Going from `CCOC(=O)C1=C(C)OC2OC(COCc3ccccc3)C(O)C(OCc3ccccc3)C2[S+]1[O-]` (stereo not given) to `CCOC(=O)C1=C(C)OC2OC(COCc3ccccc3)C(OCc3ccccc3)C(O)C2[S+]1[O-]` (stereo not given), the Ki falls from over 10 µM to 0.79 µM. The second binds more tightly here.

`CCOC(=O)C1=C(C)OC2OC(CO)C(OCc3ccccc3)C(O)C2[S+]1[O-]` (stereo not given) and `CCOC(=O)C1=C(C)OC2OC(CO)C(OCc3ccccc3)C(O)C2S1` (stereo not given) cannot be ordered by Ki: over 10 µM for the first, over 10 µM for the second.

Going from `CCOC(=O)C1=C(C)OC2OC(COCc3ccccc3)C(OCc3ccccc3)C(O)C2S1` (stereo not given) to `CCOC(=O)C1=C(C)OC2OC(CO)C(OCc3ccccc3)C(OCc3ccccc3)C2S1` (stereo not given), the Ki falls from 12.6 µM to 4 µM (3.1-fold). The second binds more tightly here.

First: CCOC(=O)C1=C(C)OC2OC(COCc3ccccc3)C(OCc3ccccc3)C(OCc3ccccc3)C2S1 (stereo not given)
Second: CCOC(=O)C1=C(C)OC2OC(COCc3ccccc3)C(OCc3ccccc3)C(OCc3ccccc3)C2[S+]1[O-] (stereo not given)
The Ki of the first is 50-fold higher: 12.6 µM for the first, 0.25 µM for the second.

Going from `O=C(C1=C(c2ccccc2)OC2OC(COCc3ccccc3)C(OCc3ccccc3)C(OCc3ccccc3)C2[S+]1[O-])c1ccccc1` (stereo not given) to `O=C(C1=C(c2ccccc2)OC2OC(COCc3ccccc3)C(OCc3ccccc3)C(OCc3ccccc3)C2S1)c1ccccc1` (stereo not given), the Ki rises from 0.79 µM to over 10 µM. The first binds more tightly here.

`O=C(C1=C(c2ccccc2)OC2OC(COCc3ccccc3)C(OCc3ccccc3)C(OCc3ccccc3)C2S1(=O)=O)c1ccccc1` (stereo not given) and `CCOC(=O)C1=C(C)OC2OC(CO)C(OCc3ccccc3)C(OCc3ccccc3)C2[S+]1[O-]` (stereo not given) are within 1.5-fold of each other in Ki: 5.01 µM for the first, 4 µM for the second.

organism: Oryctolagus cuniculus; assay: Antagonist activity on isolated endothelium-deprived rabbit pulmonary artery preparations when evaluated against a contractile concentration response curve to NKA; type: functional

In the case of `CCOC(=O)C1=C(C)OC2OC(COCc3ccccc3)C(OCc3ccccc3)C(OCc3ccccc3)C2[S+]1[O-]` (stereo not given), the pKB is reported as 6.
